TGI and GI50 data for 15 molecules are collected here from PubChem BioAssay (NCI).

What all share (test): NCI tumour cell line growth inhibition, 48 h
Test [1] deals with A549 NSCLC.
The test system of test [2] is ACHN renal.
The subject of test [3] is CCRF-CEM leukemia.
For test [4], the system named is HT29 colon.
The subject of test [5] is K-562 leukemia.
Test [6] concerns MDA-MB-231 breast.
Test [7] has as its system OVCAR-8 ovarian.
The test system of test [8] is PC-3 prostate.
In test [9] the test system is SF-539 CNS.
Test [10] concerns NCI-H522 lung.

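The compound was tested at five concentrations on cells cultured in 96-well plates, with a 48-hour exposure period. GI50 marks 50% less growth. Definition used: TGI = concentration required for complete inhibition of growth.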 Some results are limits rather than exact numbers.

For `Cc1[nH]c2ncn(/N=C/c3ccccc3O)c(=N)c2c1Cc1ccccc1`, the TGI in test [1], in [2], in test [3], in test [4], in test [5] and in [6] was greater than 100 µM throughout. The values for the TGI in [7], in test [8] and in test [9] were greater than 100 µM, 46.6 µM and greater than 100 µM, respectively.
As for `O=C1N[C@H]2c3c(Cl)sc(Cl)c3/C(=N/O)[C@H]2O1`, the TGI in [1], in test [2], in test [3], in [4], in test [5] and in [6] was greater than 100 µM in each case. In addition, the TGI in test [7], in test [8] and in test [9] was greater than 100 µM in each case.
`COC(=O)N1CC2(CO)C3CC=C(C(=O)Nc4ccccc4Br)C2C1C3Br` (configuration not stated): the TGI in test [1], in test [2], in test [3], in test [4], in test [5] and in [6] was greater than 50 µM in each case. The TGI in test [7], in test [8] and in [9] was greater than 50 µM each time.
For the molecule `CC1=NN(C(=O)CSc2nnc(SCC(=O)N3N=C(C)CC3(O)c3ccccc3)s2)C(O)(c2ccccc2)C1` (configuration not stated), the TGI in [1], in test [2], in [3], in test [5], in test [6] and in test [10] was greater than 100 µM in each case. For the same molecule, the TGI in [7] and in test [8] was greater than 100 µM in each case.
Turning to `CCOC(=O)c1ccc(N=NN(C)C(=O)C(C)N)cc1` (configuration not stated), the TGI in test [2], in test [3], in test [4], in test [5], in [6] and in test [10] was greater than 100 µM throughout. The TGI in test [7], in test [8] and in [9] was greater than 100 µM throughout.
Consider `CCCC(=O)O`, for which the TGI in [1] was greater than 18700 µM; in test [2], 14500 µM; in test [3], greater than 18700 µM; in test [4] it was greater than 18700 µM; in test [6], 18000 µM; in test [10], greater than 18700 µM. Besides, the TGI is greater than 18700 µM in test [7], greater than 18700 µM in test [8] and 16900 µM in test [9].
For the molecule `C1CC2=C(C1)[Se]C(=C1Sc3nsnc3S1)[Se]2`, the TGI in test [1], in [2], in test [3], in test [4], in [6] and in test [10] was greater than 100 µM in each case. Moreover, the TGI in test [7], in test [8] and in test [9] was greater than 100 µM in each case.
`Nc1nc2c(=O)c3ccccc3sc2s1`: the TGI in test [1], in [2], in test [3], in test [4], in [5] and in test [6] was greater than 100 µM throughout. The values for the TGI in test [7], in [8] and in test [9] were 50.7 µM, greater than 100 µM and 48.2 µM, respectively.
For the molecule `CCOC(=O)c1cn(-c2ccccc2)c(=S)n2c1nc1ccccc12`, the TGI was greater than 100 µM in test [1]; greater than 100 µM in test [2]; 65.3 µM in test [3]; greater than 90.8 µM in test [4]; greater than 100 µM in test [5]; greater than 100 µM in test [6]. The TGI in test [7] is greater than 100 µM; in [8], greater than 90 µM; in [9], greater than 100 µM.
For `CN1C/C(=C\c2cccs2)C2=NC(=S)NC(c3cccs3)C2C1` (configuration not stated), the TGI is greater than 100 µM in test [1]; greater than 100 µM in test [2]; 53.5 µM in test [3]; greater than 100 µM in test [4]; greater than 100 µM in [5]; greater than 100 µM in test [6]. The TGI in test [10], in test [7] and in test [8] was greater than 100 µM each time.
As for `Cc1ccc(C2CC(=O)CC(c3ccc(C)cc3)C23C(=O)NC(=O)NC3=O)cc1` (configuration not stated), the TGI in test [2], in test [3], in test [4], in [5], in test [6] and in [10] was greater than 100 µM in each case. Moreover, the TGI in test [7], in test [8] and in test [9] was greater than 100 µM in each case.
Take `C1=C\SS/C=C\SS/C=C\SS/C=C\SS/1`: the TGI in test [1] was greater than 100 µM; in [2], greater than 100 µM; in test [3], 61.9 µM; in test [4], greater than 100 µM; in test [5] it was 64 µM; in test [6] it was greater than 100 µM. Further, the TGI in [10] was 84.4 µM; in test [7] it was greater than 100 µM; in [8], greater than 100 µM.
On to `COc1ccc(-c2nc(N)c(C#N)c3c2CCS(=O)(=O)c2ccc(C)cc2-3)cc1OC`, for which the TGI is greater than 100 µM in [1]; greater than 100 µM in [2]; 92.2 µM in [4]; 29.4 µM in test [5]; greater than 100 µM in test [6]; 25.1 µM in test [10]. For the same molecule, the TGI in test [7] and in test [8] was greater than 100 µM in each case.
As to `O=S(=O)(c1ccc(Br)cc1)n1c2ccc(Br)cc2c2nc3ccccc3nc21`, the TGI in [1], in [2], in [3], in test [4], in [5] and in test [6] was greater than 100 µM throughout. In addition, the TGI in [10], in test [7] and in test [8] was greater than 100 µM each time.
Take `COc1cc2c(cc1OCCCN1CCN(CCCOc3cc4c(cc3OC)C(=O)N3CCC[C@H]3C=N4)CC1)C=CC(C)(C)O2`: the GI50 is 0.288 µM in test [3]; 0.32 µM in test [5]; 1.31 µM in test [6]; 1.48 µM in test [10]; 1.38 µM in test [7]; 0.804 µM in test [8]. In addition, in [9], the GI50 was 1.26 µM. Also, the TGI in test [5] was found to be 1.03 µM; in test [6], 2.58 µM; in test [10] it was 4.27 µM; in test [7] it was 3.85 µM; in test [8], 2.09 µM; in test [9], 2.51 µM.
